According to patent publication US20120115793A1, “PEPTIDOMIMETIC MACROCYCLES” (Alleron Therapeutics, Inc, priority 2008, published 2012):
Like-named read-outs stand apart in the source and are kept apart here. Where a SMILES comes first, the peptide text is derived from it. Bridges are numbered along the chain shown (N, C = ends). [ ]: non-standard residue; d: D form. R8 = C=CCCCCCC[C@@](C)(N)C(=O)O; S5 = C=CCCC[C@](C)(N)C(=O)O; Abu = CC[C@H](N)C(=O)O

System: Molt-4 cell line
Format: cell-based
Procedure: Molt-4 cell line (ATCC catalog #CRL-1582) was grown in specific serum-supplemented media (RPMI-1640, Invitrogen catalog #72400) as recommended by ATCC. A day prior to the initiation of the study, cells were split at optimal cell density (2×10^5-5×10^5 cells/ml) to assure actively dividing cells. The next day, cells were washed twice in serum-free Opti-MEM media (Invitrogen, Catalog #51985) and cells were then plated at optimal cell density (10,000 cells/well) in 50 μl Opti-MEM media or Opti-MEM supplemented with 2%, 4% or 10% human serum (Bioreclamation, catalog #HMSRM) in 96-well white tissue culture plate (Nunc, catalog #136102).
For serum free experiment, peptidomimetic macrocycles were diluted from 2 mM stocks (100% DMSO) in sterile water to prepare 400 μM working solutions. The macrocycles and controls were diluted 10-fold first and then serially two-fold diluted in Opti-MEM in dosing plates to provide concentrations of between 1.2 and 40 μM. 50 μL of each dilution was then added to the appropriate wells of the test plate to achieve final concentrations of the polypeptides equal to between 0.6 to 20 μM. For studies using Opti-MEM supplemented with human serum (Bioreclamation, catalog #HMSRM), peptidomimetic macrocycles were diluted from 10 mM stocks (100% DMSO) in sterile water to prepare 2 mM working solutions. The peptide macrocycles and controls were diluted 10-fold first and then serially two-fold diluted in Opti-MEM in the presence of 2%, 4% or 10% of human serum to provide concentrations of the polypeptides equal to between 6.25 to 200 μM in dosing plates. 50 μL of each dilution was then added to the appropriate welts of the test plate to achieve final concentrations of the polypeptides equal to between 3.125 to 100 μM. Controls included wells without polypeptides containing the same concentration of DMSO as the wells containing the macrocycles, wells containing 0.1% Triton X-100 and wells containing no cells. Plates were incubated for 48 hours at 37° C. in humidified 5% CO2 atmosphere.
At the end of the incubation period, CellTiter-Glo assay was performed according to manufacturer's instructions (Promega, catalog #G7573) and luminescence was measured using Synergy HT Plate reader (BioTek).
The following macrocycles derived from the human MAML peptide sequences were tested in cell viability assays with the MOLT-4 tumor cell line: […]

Compound	EC50 (48 h) [µM]	EC50 (MOLT-4 cells, 48 hours incubation, CellTiter-Glo, read-out: Molt 4 viability (EC50)) [µM]
CC[C@H](C)[C@H](NC(=O)[C@H](CCCNC(=N)N)NC(=O)[C@H](CCCNC(=N)N)NC(C)=O)C(=O)N[C@@H](CCC(=O)O)C(=O)N[C@@H](CC(C)C)C(=O)N[C@@H](C)C(=O)N[C@@H](CCCNC(=N)N)C(=O)N[C@@H](CCCNC(=N)N)C(=O)N[C@@H](Cc1c[nH]cn1)C(=O)N[C@@H](Cc1c[nH]cn1)C(=O)N[C@@]1(C)CCCC=CCCC[C@@](C)(C(=O)N[C@@H](CCCNC(=N)N)C(=O)N[C@@H](Cc2ccc(O)cc2)C(=O)N[C@@H](CCC(=O)O)C(=O)N[C@@H](C)C(=O)N[C@H](C(N)=O)C(C)C)NC(=O)[C@H](CCC(=O)O)NC(=O)[C@H](C)NC(=O)[C@H]([C@@H](C)O)NC1=O [Compound 17, Ac-RRIELARRHH$TAE$RYEAV-NH2] (Ac-RRIELARRHH[S5]TAE[S5]RYEAV-NH2; staple 11-15)	> 20	
CC[C@@H]1NC(=O)[C@H](CC(C)C)NC(=O)[C@@](C)(NC(=O)[C@@H](NC(=O)[C@H](CCCNC(=N)N)NC(=O)[C@H](CCCNC(=N)N)NC(=O)[C@H](CCCNC(=N)N)NC(=O)[C@H](CC(C)C)NC(=O)[C@H](C)NC(C)=O)[C@@H](C)CC)CCCC=CCCC[C@@](C)(C(=O)N[C@@H](Cc2c[nH]cn2)C(=O)N[C@@H](Cc2c[nH]cn2)C(=O)N[C@@H](CO)C(=O)N[C@H](C(=O)N[C@@H](C)C(=O)N[C@@H](CCC(=O)O)C(=O)N[C@@H](C)C(=O)N[C@@H](CCCNC(=N)N)C(=O)N[C@@H](Cc2ccc(O)cc2)C(=O)N[C@@H](CCC(=O)O)C(=O)N[C@@H](C)C(=O)N[C@H](C(N)=O)C(C)C)[C@@H](C)O)NC(=O)[C@H](C)NC1=O [Compound 26, Ac-ALRRRI$LAbuA$HHSTAEARYEAV-NH2] (Ac-ALRRRI[S5]L[Abu]A[S5]HHSTAEARYEAV-NH2; staple 7-11)	> 20	
CC[C@H](C)[C@@H]1NC(=O)[C@@](C)(NC(=O)[C@H](CCCNC(=N)N)NC(=O)[C@H](CCCNC(=N)N)NC(=O)[C@H](CC(C)C)NC(=O)[C@H](CCCNC(=N)N)NC(=O)[C@H](CCC(=O)O)NC(C)=O)CCCC=CCCC[C@@](C)(C(=O)N[C@@H](CCCNC(=N)N)C(=O)N[C@@H](CCCNC(=N)N)C(=O)N[C@@H](Cc2c[nH]cn2)C(=O)N[C@@H](Cc2c[nH]cn2)C(=O)N[C@@H](CO)C(=O)N[C@H](C(N)=O)[C@@H](C)O)NC(=O)[C@H](CC(C)C)NC(=O)[C@H](CCC(=O)O)NC1=O [Compound 16, Ac-ERLRR$IEL$RRHHST-NH2] (Ac-ERLRR[S5]IEL[S5]RRHHST-NH2; staple 6-10)	11.7	
CC[C@H](NC(=O)[C@H](CC(C)C)NC(=O)[C@H](CCC(=O)O)NC(=O)[C@@H](NC(=O)[C@H](CCCNC(=N)N)NC(=O)[C@H](CCCNC(=N)N)NC(=O)[C@H](CCCNC(=N)N)NC(=O)[C@H](CC(C)C)NC(=O)[C@H](C)NC(C)=O)[C@@H](C)CC)C(=O)N[C@@H](C)C(=O)N[C@]1(C)CCCCCCC=CCCC[C@@](C)(C(=O)N[C@@H](CCCNC(=N)N)C(=O)N[C@@H](Cc2ccc(O)cc2)C(=O)N[C@@H](CCC(=O)O)C(=O)N[C@@H](C)C(=O)N[C@H](C(N)=O)C(C)C)NC(=O)[C@H](CCC(=O)O)NC(=O)[C@H](CC)NC(=O)[C@H]([C@@H](C)O)NC(=O)[C@H](CO)NC(=O)[C@H](Cc2c[nH]cn2)NC(=O)[C@H](Cc2c[nH]cn2)NC1=O [Compound 25, Ac-ALRRRIELAbuA$r8HHSTAbuE$RYEAV-NH2] (Ac-ALRRRIEL[Abu]A[R8]HHST[Abu]E[S5]RYEAV-NH2; staple 11-18)		> 20
CC[C@H](C)[C@H](NC(=O)[C@H](CCCNC(=N)N)NC(=O)[C@H](CCCNC(=N)N)NC(=O)[C@H](CCCNC(=N)N)NC(=O)[C@H](CC(C)C)NC(=O)[C@H](C)NC(C)=O)C(=O)N[C@@]1(C)CCCC=CCCC[C@@](C)(C(=O)N[C@@H](Cc2c[nH]cn2)C(=O)N[C@@H](Cc2c[nH]cn2)C(=O)N[C@@H](CO)C(=O)N[C@H](C(N)=O)[C@@H](C)O)NC(=O)[C@H](C)NC(=O)[C@H](CO)NC(=O)[C@H](CC(C)C)NC1=O [Compound 21, Ac-ALRRRI$LSA$HHST-NH2] (Ac-ALRRRI[S5]LSA[S5]HHST-NH2; staple 7-11)	> 20	
